Data on two compounds can be found in US7931909B2, “Ocular therapy using alpha-2 adrenergic receptor compounds having enhanced anterior clearance rates” (Allergan, Inc., priority 2005, dated 2011).

The test system of data set [1] is organic cation transporter present in the conjunctiva. Particulars: cited from earlier work.
Data set [2] in a line: in vivo. Particulars: albino, rabbit, vitreous humor, 928 ng.
The nature of data set [3]: in vivo. Particulars: rabbit, other: intravitreal implant, 200 micrograms.
For data set [4] the following is noted: intravitreal PLA implant, 200 micrograms brimonidine, rabbit eyes.
Data set [5] can be described thus: Pharmacokinetics of brimonidine drug delivery systems administered subconjunctivally. Particulars: all samples, subconjunctival drug delivery systems, rabbit. Type of data set: in vivo, New Zealand White rabbits. The text has this:
Thirty groups of rabbits (2 rabbits per group) were used. The groups were divided into 6 sections of 5 groups. […] In each section, one group underwent ophthalmic observation at 5 days after dosing (DAD) and were euthanized at 8 DAD, one group underwent ophthalmic observation at 5 and 29 DAD and were euthanized at 31 DAD, one group underwent ophthalmic observation at 5, 29, and 54 DAD and were euthanized at 60 DAD, and two groups underwent ophthalmic observation at 5, 29, 54, and 86 DAD and were euthanized at 93 DAD.
Eyes were prepared for surgery by topical application of two drops of 1% tropicamide and two drops of phenylephrine hydrochloride 2.5%. Betadine was applied and washed from the eyes, and 1-2 drops of 0.5% proparacaine hydrochloride were delivered to each eye. […] Rods and wafers were administered using forceps. Conjunctivae were sutured closed and received a ocular lubricant. Subconjunctival injections were performed by elevating the bulbar conjunctiva in the dorsotemporal quadrant using forceps. An injection was made into the subconjunctival space.
In the above, the samples were quantified using LC-MS/MS methods with quantitation limits of 10 ng/mL for aqueous and vitreous humor samples, 0.05 ng/mL for plasma samples, 0.5 ng for iris-ciliary body samples, lens samples, and retina samples.

The target in data set [6] is alpha 2 adrenergic receptor. Particulars: read-out: EC50 to activate the alpha 2 adrenergic receptor; isolated assay systems; cited from earlier work.
The conditions of data set [7]: cited from earlier work.

Where two headings read alike, the source gives them in different places. Marks after values point to notes of the source that are not given here.

As for `Brc1c(NC2=NCCN2)ccc2nccnc12` [brimonidine, 5-bromo-6-(2-imidazolidinylideneamino)quinoxaline], the “substrate for the organic cation transporter” value in data set [1] was “substrate”. In addition, in “in vivo [2]”, the clearance (usually a measure of how efficiently the substance is removed, as volume per time) was 0.00812 mL/min and the half-life – broadly, the time needed for the level to fall by half in the phase considered – was 1.45 h. In “in vivo [2]” (other: intravitreal injection), this compound yielded a concentration at 0.5 h of 608 ± 116 ng/mL and a concentration at 10 h of 9.68 ± 6.48 ng/mL. For the same compound, in “in vivo [3]” (iris-ciliary body), the concentration at 31 day turned out to be 25.9 ± 9.11 ng/g, the concentration at 58 day was found to be 69.4 ± 55.3 ng/g and the concentration at 136 day came to 107 ± 41.5 ng/g. Besides, in the data set “in vivo [3]” (lens), the concentration at 8 day was found to be 45.1 ± 13.4 ng/g, the concentration at 31 day was 17 ± 3.92 ng/g and the concentration at 91 day came out at 50.1 ± 14.8 ng/g. In the data set “in vivo [3]” (retina), this compound yielded a concentration at 8 day of 3630 ± 2110 ng/g, a concentration at 31 day of 35.3 ± 15.5 ng/g and a concentration at 136 day of 22.6 ± 5.9 ng/g. In the data set “in vivo [3]” (vitreous humor), this compound returned a concentration at 8 day of 47.2 ± 13.1 ng/mL and a concentration at 91 day of 59.3 ± 43.2 ng/mL. Besides, the “Brimonidine Concentration Iris-ciliary body” value in data set [4] (Day 8, mean (N = 2)) is 942 ng/g. In addition, in data set [4] (Day 8, two samples above the limit of quantitation), the “Brimonidine Concentration Iris-ciliary body, estimated mean value in parentheses” value is 3010 ng/g. Further, in data set [4] (Day 31, mean ± SEM), the “Brimonidine Concentration Vitreous humor” value is 9.35 ± 6.25^b ng/mL. Besides, in data set [4] (Day 58, mean ± SEM), the “Brimonidine Concentration Lens” value is given as 17.9 ± 12.5^b ng/g, the “Brimonidine Concentration Retina” value was 122 ± 57.3^a ng/g and the “Brimonidine Concentration Vitreous humor” value is 5.6 ± 3.24^b ng/mL. Also, in data set [4] (Day 91, mean ± SEM), the “Brimonidine Concentration Iris-ciliary body” value was 42.9 ± 18.7^c ng/g and the “Brimonidine Concentration Retina” value was 488 ± 471^b ng/g. Moreover, the “Brimonidine Concentration Lens” value in data set [4] (Day 136, mean ± SEM) is recorded as 16.2 ± 12.3^a ng/g. In addition, in data set [4] (Day 184, mean ± SEM), the “Brimonidine Concentration Lens” value is reported as 1.18 ± 0.71^b ng/g and the “Brimonidine Concentration Retina” value is given as 59.8 ± 35.0^b ng/g. For the same compound, the vitreal clearance rate (as restated in Example 3) was determined as 0.487 mL/day. Also, the “route of elimination from the vitreous” value (conclusion from intravitreal clearance, rabbit) is on record as “trans-retinal route”. In data set [5], the Plasma brimonidine concentrations result was “below the lower limit of quantitation”. Moreover, the EC50 (as a rule, the midpoint of the concentration-response curve) in data set [6] was around 2 nM.

brimonidine tartrate: the solubility in water in data set [7] (in water) was 34 mg/mL. The “solubility in a pH 7.0 phosphate buffer” value in data set [7] (pH 7.0 phosphate buffer) is on record as 2.4 mg/mL.
